Results reported in ChEMBL document CHEMBL1201862, “PubChem BioAssay data set” (2004).
Active and inactive are the calls of the source.

Key:
[1] = biological target: FAD-linked sulfhydryl oxidase ALR (Homo sapiens, UniProt P55789); assay: inhibitors of human ALR sulfhydryl oxidase, dose response, biochemical, H2O2 detection, luminescence, cherry-pick (AID 493248)
[2] = growth suppression of PTEN-null colon cells, dose response, cell-based, HCT116 PTEN knockout (AID 1047); format: functional;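 note: HCT116 colon tumor cells with PTEN knocked out; cells exposed to compound for 60 hours before readout; potency for loss of cell viability measured by luminescence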
[3] = test system: INS1; assay: beta cell apoptosis inhibitors, cytokine rescue, dose response, luminescence, retest (AID 449756); format: functional, cell-based; settings: Rattus norvegicus;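 note: cell death triggered by IL-1 beta plus TNF-alpha plus IFN-gamma mixture; protective hits raise ATP signal compared with cytokine alone wells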
[4] = growth suppression of beta-catenin-knockout colon cells, dose response, cell-based, HCT116, human colon tumor (AID 1045); format: functional;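 note: HCT116 colon tumor cells with beta catenin knocked out; cells exposed to compound for 60 hours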
[5] = Luminescence Cell-Based Dose Retest to Confirm Inhibitors of Cancer Stem Cells. [Related pubchem assays (depositor defined):AID2717, AID2721]; format: functional; settings: Homo sapiens
[6] = cells; format: functional, cell-based
[7] = cells; format: functional, cell-based; remark: listed apart in the source
[8] = test system: H9c2; assay: cells; format: functional, cell-based; settings: Rattus norvegicus, H9c2, Myocardium;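 note: confirmatory concentration-response retest of ultra-high-throughput screening hits for modulation of myocardial damage; cell death induced by hydrogen peroxide oxidative stress; compound pretreatment for 60 min then peroxide exposure for 2 h; potency is for protecting the cells against peroxide damage rather than for killing them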
[9] = inhibitors of SNCA 5'UTR-driven reporter translation, confirmation, H4 neuroglioma cells, luminescence (AID 1988); format: functional, cell-based
[10] = inhibitors of firefly luciferase expression or activity, dose response, H4 neuroglioma cells, luminescence (AID 1990); format: functional, cell-based
[11] = Luminescence Cell-Based Dose Response HTS to Identify Inhibitors of 5'UTR Stem-Loop Driven Prion Protein mRNA Translation in H4 Neuroglioblastoma Cells. [Related pubchem assays: 1827 (Project Summary), 1813 (Primary HTS)]; format: functional
[12] = test system: H4; assay: Luminescence Cell-Based Dose Response HTS to Identify Activators of 5'UTR Stem-Loop Driven Prion Protein mRNA Translation in H4 Neuroglioblastoma Cells. [Related pubchem assays: 1829 (Project Summary), 1814 (Primary HTS)]; format: functional; settings: Homo sapiens
[13] = Luminescence Cell-Based Dose Response HTS to Identify Activators of Luciferase Translation or Activity in H4 […] Cells. [Related pubchem assays: 1829 (Project Summary), 1814 (Primary HTS)]; format: functional
[14] = C. albicans growth with fluconazole, confirmation, fluorescence, retest (AID 2467); format: functional, cell-based
[15] = NIH-3T3 fibroblast cytotoxicity, dose response, cytotoxicity control, cell-based, fluorescence, Alamar Blue, secondary assay (AID 2327); format: functional;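 note: NIH-3T3 mouse fibroblasts cultured with fluconazole at 8 µg/mL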
[16] = microbe, parasite or virus in culture; format: functional; settings: Mycobacterium tuberculosis
[17] = biological target: T1, Rac GTPase-activating protein 1 (Homo sapiens, UniProt Q9H0H5); assay: MgcRacGAP GTPase-activating activity inhibitors, confirmation, biochemical, ADP Hunter fluorescence, primary and confirmatory (AID 624330); format: functional
T1 sequence (Q9H0H5 whole entry): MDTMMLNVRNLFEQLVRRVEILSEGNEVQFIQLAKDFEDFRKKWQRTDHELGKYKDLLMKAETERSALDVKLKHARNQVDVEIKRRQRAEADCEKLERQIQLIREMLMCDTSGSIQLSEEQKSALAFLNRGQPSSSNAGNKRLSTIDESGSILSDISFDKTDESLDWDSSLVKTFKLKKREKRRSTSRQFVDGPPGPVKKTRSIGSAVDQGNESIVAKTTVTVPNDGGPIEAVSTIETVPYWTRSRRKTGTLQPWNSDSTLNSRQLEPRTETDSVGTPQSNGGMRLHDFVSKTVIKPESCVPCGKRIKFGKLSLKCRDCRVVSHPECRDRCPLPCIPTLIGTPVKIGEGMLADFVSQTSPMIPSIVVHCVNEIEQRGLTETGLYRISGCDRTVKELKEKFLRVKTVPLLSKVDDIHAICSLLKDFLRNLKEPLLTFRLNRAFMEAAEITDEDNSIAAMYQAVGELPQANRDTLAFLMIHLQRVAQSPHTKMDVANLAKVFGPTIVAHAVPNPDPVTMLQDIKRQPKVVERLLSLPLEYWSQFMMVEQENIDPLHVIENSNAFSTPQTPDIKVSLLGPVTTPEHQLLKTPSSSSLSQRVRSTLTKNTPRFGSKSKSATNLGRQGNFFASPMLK

[18] = biological target: T2, RNA-binding protein pos-1 (Caenorhabditis elegans, UniProt G5EF15); assay: inhibitors of POS-1/mex-3 RNA binding, dose response, biochemical, fluorescence polarization (AID 1964);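 note: purified POS-1 fused to maltose binding protein made in E. coli; potency of compounds blocking POS-1 binding to fluorescent RNA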
T2 sequence (G5EF15 whole entry): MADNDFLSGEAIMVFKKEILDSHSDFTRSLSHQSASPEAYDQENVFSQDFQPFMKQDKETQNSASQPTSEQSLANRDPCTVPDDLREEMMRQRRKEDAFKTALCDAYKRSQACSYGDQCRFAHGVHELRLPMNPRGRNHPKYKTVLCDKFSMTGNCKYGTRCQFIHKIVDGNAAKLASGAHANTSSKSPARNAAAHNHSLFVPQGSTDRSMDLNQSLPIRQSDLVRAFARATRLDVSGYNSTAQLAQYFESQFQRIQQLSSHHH

[19] = biological target: Paired box protein Pax-8 (Homo sapiens, UniProt Q06710); assay: inhibitors of PAX8-driven TPO luciferase reporter, dose response, RMG-I cells, cherry-pick (AID 687027); format: functional, cell-based;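 note: luciferase reporter driven by Pax8 target thyroperoxidase promoter measured by SteadyGlo luminescence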
Chain of Paired box protein Pax-8 (Q06710 whole entry): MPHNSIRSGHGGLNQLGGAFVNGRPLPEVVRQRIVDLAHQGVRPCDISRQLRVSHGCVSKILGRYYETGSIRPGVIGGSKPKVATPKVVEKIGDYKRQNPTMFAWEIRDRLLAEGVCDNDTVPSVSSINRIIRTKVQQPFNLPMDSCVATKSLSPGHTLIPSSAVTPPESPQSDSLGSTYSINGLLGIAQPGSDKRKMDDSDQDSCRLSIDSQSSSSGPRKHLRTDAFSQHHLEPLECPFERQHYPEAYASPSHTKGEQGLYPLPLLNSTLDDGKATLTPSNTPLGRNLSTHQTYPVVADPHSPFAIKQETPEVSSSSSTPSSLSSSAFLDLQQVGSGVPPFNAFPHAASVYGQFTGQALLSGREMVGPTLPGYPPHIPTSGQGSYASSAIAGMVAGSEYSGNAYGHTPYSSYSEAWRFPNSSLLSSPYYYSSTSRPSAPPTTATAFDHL

Chain of FAD-linked sulfhydryl oxidase ALR (P55789 whole entry): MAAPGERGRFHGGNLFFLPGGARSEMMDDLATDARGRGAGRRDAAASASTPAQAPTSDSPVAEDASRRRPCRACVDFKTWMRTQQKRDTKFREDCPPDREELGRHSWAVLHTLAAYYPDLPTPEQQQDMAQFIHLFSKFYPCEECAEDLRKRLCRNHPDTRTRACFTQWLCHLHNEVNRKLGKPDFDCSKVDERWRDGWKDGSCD

With `CC(C(=O)Nc1ccc(S(N)(=O)=O)cc1)N1CCc2ccccc21` (stereo not drawn) the AC50 [1] was 1.8 µM (active).

In the case of `O=C1/C(=C\c2cccnc2)CN(Cc2ccccc2)C/C1=C\c1cccnc1`, the EC50 [2] is reported as 1.29 µM (active), the AC50 [3] is reported as 4.87 µM (active) and the EC50 [4] is reported as 0.429 µM (active). The AC50 [5] was 2.06 µM (active).

In the case of `COc1ccc(CNS(=O)(=O)c2cc3c4c(c2)C(C)C(=O)N4CCC3)cc1` (stereo not drawn), the EC50 [6] is reported as > 350 µM (not active) and the EC50 [7] is reported as > 350 µM (not active).

For `COc1ccc(COc2cc(-c3cccc(OC)c3)nc3ccc(NC(=O)c4cccnc4)cc23)cc1`, the IC50 [8] was > 79 µM (inactive).

In the case of `NC(=NO)c1ccc(NC(=O)c2ccc(Br)o2)cc1`, the AC50 [1] is reported as 0.16 µM (active).

In the case of `CN1CCN(C2Cc3ccc(F)cc3Sc3cc(F)c(Cl)cc32)CC1` (stereo not drawn), the EC50 [6] is reported as > 350 µM (not active), the EC50 [9] is reported as > 60 µM (not active) and the EC50 [7] is reported as 20.1 µM (active). The AC50 [5] was 6.08 µM (active), the EC50 [10] was > 120 µM (not active) and the EC50 [11] was > 120 µM (not active).

With `O=C(COC(=O)c1ccccc1[N+](=O)[O-])c1ccc2c(c1)OCO2` the EC50 [12] was 36 µM (active) and the EC50 [13] was > 120 µM (not active).

With `CCOC(=O)c1c(NC(=O)CN2CCN(C(=O)c3ccco3)CC2)sc2c1CCCC2` the EC50 [2] was 35.1 µM (active), the EC50 [14] was > 38 µM (not active) and the EC50 [4] was 28.7 µM (active). For the same molecule, the EC50 [15] was > 150 µM (inactive).

In the case of `CC(C)n1cnc2c(NCc3ccccc3)cc(Cc3ccc(F)cc3)cc21`, the AC50 [5] is reported as 1.78 µM (active) and the CC50 [16] is reported as > 40 µM (active).

In the case of `O=C(CCc1nnc(-c2ccccc2)o1)c1ccc(Cl)cc1`, the EC50 [6] is reported as > 350 µM (not active).

In the case of `Nc1ccc(NC(=O)c2ccco2)c(Cl)c1`, the AC50 [1] is reported as 1.72 µM (active).

In the case of `CCN(C[C@H]1N[C@@](CC)(C(=O)OC)[C@H]2C(=O)N(Cc3ccccc3)C(=O)[C@@H]12)S(=O)(=O)c1ccc(F)cc1`, the IC50 [8] is reported as 13.9 µM (active).

With `CC(=O)c1cccc(-c2cnc3c(NC=O)cc(-c4ccc(F)cc4)cn23)c1` the IC50 [8] was > 79 µM (inactive).

With `COc1nc(N/N=C/c2cc3c(cc2Br)OCO3)nc(N2CCOCC2)n1` the IC50 [8] was > 79 µM (inactive).

In the case of `Oc1ccc(/C=N/Nc2[nH]cnc3ncnc2-3)cc1`, the IC50 [17] is reported as 11.6 µM (active) and the EC50 [18] is reported as > 300 µM (not active).

In the case of `COc1cc(/C=N/NC(=O)c2ccncc2)ccc1OCC(=O)Nc1ccc(C)c(C)c1`, the IC50 [8] is reported as > 79 µM (inactive).

For `C[C@H]1CCCCO[C@@H](CN(C)C(=O)Nc2ccc(C(F)(F)F)cc2)[C@@H](C)CN([C@@H](C)CO)C(=O)c2cc(NS(=O)(=O)c3cn(C)cn3)ccc2O1`, the AC50 [19] was 17.9 µM (active).

With `CCCC(=O)Nc1ccc2c(c1)C(=O)N(C)C[C@@H](OC)[C@H](C)CN(Cc1ccc(-c3ccccn3)cc1)[C@H](C)CO2` the AC50 [19] was 28.7 µM (active).

In the case of `C[C@@H]1CN([C@H](C)CO)C(=O)c2cc(NC(=O)Nc3ccc(C(F)(F)F)cc3)ccc2O[C@@H](C)CCCCO[C@H]1CN(C)C(=O)Nc1ccc(F)cc1`, the AC50 [19] is reported as 1.41 µM (active).

In the case of `CC1CC/C(=N/Nc2ccccc2)C(=O)N1` (stereo not drawn), the AC50 [1] is reported as 0.623 µM (active).

With `Cc1nnc(S)n1/N=C/c1cccc(OCc2ccccc2)c1` the CC50 [16] was > 40 µM (active).

In the case of `Cc1oc(-c2ccc(Cl)cc2)cc1/C(O)=C(C#N)/C=N/c1cccc(OC(F)(F)F)c1`, the EC50 [6] is reported as > 350 µM (not active) and the EC50 [7] is reported as > 350 µM (not active).
